Experimental data published in ChEMBL document CHEMBL1138777, “Frontal affinity chromatography with MS detection of EphB2 tyrosine kinase receptor. 1. Comparison with conventional ELISA” (J Med Chem, 2004).

Legend:
[1] = Binding constant for EphB2 tyrosine kinase
[2] = Inhibition of EphB2 receptor tyrosine kinase in ELISA assay

| SMILES | Kd [1] [µM] | IC50 [2] [µM] |
| --- | --- | --- |
| COc1cc2ncnc(Nc3cccc(O)c3)c2cc1OC | 2.4 | 1.2 |
| COc1cc2ncnc(Nc3ccc(Oc4ccccc4)cc3)c2cc1OC | 58.4 | 86 |
| CN(C)c1ccc(/C=C2\C(=O)Nc3ccccc32)cc1 | 19.5 | 27.5 |

Next, values leading:

| Kd [1] [µM] | IC50 [2] [µM] | SMILES |
| --- | --- | --- |
| 36.5 | 52 | CC(C)(C)n1nc(-c2ccc(Cl)cc2)c2c(N)ncnc21 |
| 21.9 | 34 | CNc1cc2c(Nc3cccc(Br)c3)ncnc2cn1 |
| 8.1 | 10.2 | COc1cc2ncnc(Nc3cccc(Br)c3)c2cc1OC |
